Source: patent EP0938471B1, “THE PREPARATION AND USE OF ORTHO-SULFONAMIDO ARYL HYDROXAMIC ACIDS AS MATRIX METALLOPROTEINASE AND TACE INHIBITORS” (priority 1996, dated 1998)
pIC50: −log10 of the molar value. Read-outs that look alike come from different tables or passages of the source.

Assays:
MMP-9 [1] = target: T1, MMP-9 (Homo sapiens, UniProt P14780); test: In vivo MMP inhibition (enzyme in implanted dialysis tubing); parameters: species or system rat (Sprague-Dawley) or mouse (CD-1)
Procedure: A 2 cm piece of dialysis tubing (molecular weight cut-off 12-14,000, 10 mm flat width) containing matrix metalloproteinase enzyme (stromelysin, collagenase or gelatinase in 0.5 mL of buffer) is implanted either ip or sc (in the back) of a rat (Sprague-Dawley, 150-200g) or mouse (CD-1,25-50g) under anesthesia. Drugs are administered PO, IP, SC or IV through a canula in the jugular vein. Drugs are administered in a dose volume of 0.1 to 0.25 mL/animal. Contents of the dialysis tubing is collected and enzyme activity assayed. Enzyme reaction rates for each dialysis tube are calculated. Tubes from at least 3 different animals are used to calculate the mean± sem. Statistical significance (p<0.05) of vehicle-treated animals versus drug-treated animals is determined by analysis of variance. (Agents and Actions 21: 331, 1987).

MMP-9 [2] = target: T1, MMP-9; test: MMP-9 inhibition (thiopeptide or fluorescent peptide substrate assay); type: biochemical; conditions: read-out: MMP-9 IC50
MMP-13 = MMP-13 (Homo sapiens, UniProt P45452); test: MMP-13 inhibition (thiopeptide or fluorescent peptide substrate assay); type: biochemical; conditions: read-out: MMP-13 IC50
Procedure: The enzyme activity is measured by the rate of the color increase. The thiopeptide substrate is made up fresh as a 20 mM stock in 100% DMSO and the DTNB is dissolved in 100% DMSO as a 100 mM stock and stored in the dark at room temperature. Both the substrate and DTNB are diluted together to 1 mM with substrate buffer (50 mM HEPES pH 7.5, 5 mM CaCl2) before use. […] Alternatively, a fluorescent peptide substrate is used. In this assay, the peptide substrate contains a fluorescent group and a quenching group. Upon cleavage of the substrate by an MMP, the fluorescence that is generated is quantitated on the fluorescence plate reader. […] The substrate is dissolved in methanol and stored frozen in 1 mM aliquots. For the assay, substrate and enzymes are diluted in HCBC buffer to the desired concentrations. Compounds are added to the 96 well plate containing enzyme and the reaction is started by the addition of substrate. […] For either the thiopeptide or fluorescent peptide assays, the slope of the line is calculated and represents the reaction rate. […] The mean (x±sem) of the control rate is calculated and compared for statistical significance (p<0.05) with drug-treated rates using Dunnett's multiple comparison test.

MMP-1 = target: T2, MMP-1 (Homo sapiens, UniProt P03956); test: MMP-1 inhibition (thiopeptide or fluorescent peptide substrate assay); type: biochemical; conditions: read-out: MMP-1 IC50
T2 sequence (P03956 100-469): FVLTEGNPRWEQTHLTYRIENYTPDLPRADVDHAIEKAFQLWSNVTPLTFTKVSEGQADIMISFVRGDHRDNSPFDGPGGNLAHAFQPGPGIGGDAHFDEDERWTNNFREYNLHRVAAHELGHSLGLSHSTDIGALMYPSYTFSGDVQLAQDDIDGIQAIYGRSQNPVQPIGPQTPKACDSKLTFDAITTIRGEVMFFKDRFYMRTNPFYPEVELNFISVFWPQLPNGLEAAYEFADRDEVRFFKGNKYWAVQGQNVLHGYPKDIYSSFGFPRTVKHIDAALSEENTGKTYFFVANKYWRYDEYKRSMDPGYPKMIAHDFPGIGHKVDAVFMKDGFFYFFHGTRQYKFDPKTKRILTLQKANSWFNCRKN

cartilage = test: Cartilage degradation in the rat (cartilage-sponge implant); type: in vivo, rat (Lewis strain); conditions: average daily dose 50 mg/kg, intraperitoneal osmotic minipump; for % Inhibition of Cartilage Collagen Loss: * = p<0.05 vs vehicle-treated rats
Procedure: Twenty mg slices of cartilage are obtained from the knee of freshly slaughtered cattle. Discs of cellulose sponge, 6 mm in diameter, are cut and a 2 mm hole put in the center of the sponge. 100 µl of a sterile suspension containing 1 mg of heat-killed Mycobacterium tuberculosis is applied to the sponge. After air-drying overnight, the sponges are autoclaved and a cartilage slice is placed in the hole cut in the sponge disc. Under sterile conditions, the cartilage-sponge disc is placed subcutaneously in the back of an anesthetized rat (Lewis strain, 200 to 250 g). The incision is closed with staples and the rat allowed to recover from anesthesia. Approximately 5 days after sponge implantation, osmotic minipumps (Alza Corp., Palo Alto, CA), containing either investigational compound or vehicle were implanted intraperitoneally in the anesthetized rat under sterile conditions After 19 days, the rats are euthanized by asphyxiation with CO2 and the granulomas containing the implanted sponge excised from the surrounding tissue.
The weight of the piece of cartilage recovered from the sponge was recorded and the collagen content of the cartilage was determined. The mean of the cartilage weights and collagen content was determined for the vehicle and drug-treated groups. The inhibition of cartilage weight and collagen content loss produced by the compounds compared with vehicle-treated rats was determined. Statistical significance (p< 0.05) of vehicle-treated animals versus drug-treated animals was determined by analysis of variance.
Reference: Bishop J., Greenham AK., Lewis EJ. A novel in vivo model for the study of cartilage degradation. J. Pharmacol. Toxicol. Methods, 30:19-25, 1993.

TACE = TACE (Homo sapiens, UniProt P78536); test: TACE inhibition (fluorescent peptidyl substrate); type: biochemical; conditions: for inhibition at 1 µM: at 1µM concentration
[3] = 100 mg/kg, ip (intraperitoneal)

T1 sequence (P14780 94-707): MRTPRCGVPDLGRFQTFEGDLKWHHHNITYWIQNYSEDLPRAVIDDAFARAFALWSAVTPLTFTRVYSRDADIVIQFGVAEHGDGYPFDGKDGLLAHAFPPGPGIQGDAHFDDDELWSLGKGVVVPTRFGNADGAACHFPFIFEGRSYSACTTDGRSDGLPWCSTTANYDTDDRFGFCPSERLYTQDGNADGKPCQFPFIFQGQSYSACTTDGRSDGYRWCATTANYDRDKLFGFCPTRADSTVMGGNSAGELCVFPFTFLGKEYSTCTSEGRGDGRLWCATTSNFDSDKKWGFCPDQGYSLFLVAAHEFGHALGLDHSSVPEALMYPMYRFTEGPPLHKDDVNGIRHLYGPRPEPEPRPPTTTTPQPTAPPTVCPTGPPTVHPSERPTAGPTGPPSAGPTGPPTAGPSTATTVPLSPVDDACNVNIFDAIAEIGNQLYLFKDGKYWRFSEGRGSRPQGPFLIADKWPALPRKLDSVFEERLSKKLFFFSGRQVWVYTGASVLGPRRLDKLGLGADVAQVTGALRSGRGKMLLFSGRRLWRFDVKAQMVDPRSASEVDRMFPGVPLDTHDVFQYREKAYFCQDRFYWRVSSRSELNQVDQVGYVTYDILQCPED
Chain of TACE (P78536 215-824): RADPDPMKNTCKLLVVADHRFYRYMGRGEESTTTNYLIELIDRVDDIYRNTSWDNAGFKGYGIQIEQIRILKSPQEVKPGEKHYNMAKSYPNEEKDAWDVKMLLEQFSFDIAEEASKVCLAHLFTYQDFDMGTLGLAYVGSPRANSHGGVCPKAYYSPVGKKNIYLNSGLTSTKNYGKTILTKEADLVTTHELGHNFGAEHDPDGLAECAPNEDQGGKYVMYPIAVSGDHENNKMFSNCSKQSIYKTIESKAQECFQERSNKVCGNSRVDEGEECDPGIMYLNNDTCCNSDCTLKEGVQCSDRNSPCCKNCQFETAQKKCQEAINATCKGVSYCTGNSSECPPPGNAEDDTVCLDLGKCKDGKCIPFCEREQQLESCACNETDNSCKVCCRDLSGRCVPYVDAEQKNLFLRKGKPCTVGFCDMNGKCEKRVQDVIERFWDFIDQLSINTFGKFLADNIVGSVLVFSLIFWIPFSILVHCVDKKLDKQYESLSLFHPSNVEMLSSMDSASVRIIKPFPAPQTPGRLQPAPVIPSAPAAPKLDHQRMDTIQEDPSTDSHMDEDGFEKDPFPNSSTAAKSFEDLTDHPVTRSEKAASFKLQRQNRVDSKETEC

Structure (SMILES)	pIC50 (MMP-9 [2])	pIC50 (MMP-13)	pIC50 (MMP-1)	pIC50 (TACE; read-out: TACE IC50)	further results
COc1ccc(S(=O)(=O)N(Cc2cccnc2)c2c(C)cc(Br)cc2C(=O)NO)cc1 [Example 91, 5-Bromo-N-hydroxy-2-[(4-methoxy-benzenesulfonyl)-pyridin-3-ylmethyl-amino]-3-methyl-benzamide]	7.62	7.70			in-vivo MMP % inhibition vs. MMP-9 (MMP-9 [1]; 100 mg/kg, po (oral)): 55(100), po %
COc1ccc(S(=O)(=O)N(C)c2c(CN3CCN(C)CC3)cc(Br)cc2C(=O)NO)cc1 [Example 313, 5-Bromo-N-hydroxy-2-[(4-methoxy-benzenesulfonyl)-methyl-amino]-3-(4-methyl-piperazin-1-ylmethyl)-benzamide]	8.85		6.74		% Inhibition of Cartilage Weight Loss (cartilage): 45.5%; % Inhibition of Cartilage Collagen Loss (cartilage): 28.0* %; pIC50 (TACE): 7.59
CCCN(c1c(C)cc(C)cc1C(=O)NO)S(=O)(=O)c1ccc(OC)cc1 [Example 117, N-Hydroxy-2-[(4-methoxy-benzenesulfonyl)-propyl-amino]-3,5-dimethyl-benzamide]	8.00	8.00	6.94	6.81	in-vivo MMP % inhibition vs. MMP-9 (MMP-9 [1]; [3]): 28.3(100), ip %
COc1ccc(S(=O)(=O)N(Cc2cccnc2)c2c(C)cccc2C(=O)NO)cc1 [Example 83, N-Hydroxy-2-[(4-methoxy-benzenesulfonyl)-pyridin-3-ylmethyl-amino]-3-methyl-benzamide]					% Inhibition of Cartilage Weight Loss (cartilage): 44.6%; % Inhibition of Cartilage Collagen Loss (cartilage): 51.2* %
COc1ccc(S(=O)(=O)N(Cc2ccccc2)c2c(OCc3ccccc3)cccc2C(=O)NO)cc1 [Example 34, 2-[Benzyl-(4-methoxy-benzenesulfonyl)-amino]-3-benzyloxy-N-hydroxy-benzamide]	7.55	7.16	6.55	< 6.00	in-vivo MMP % inhibition vs. MMP-9 (MMP-9 [1]; [3]): 31.6(100), ip %
COc1ccc(S(=O)(=O)N(Cc2ccccc2)c2c(C)cc(Br)cc2C(=O)NO)cc1 [Example 25, 2-[Benzyl-(4-methoxy-benzenesulfonyl)-amino]-5-bromo-N-hydroxy-3-methyl-benzamide]				< 6.00	in-vivo MMP % inhibition vs. MMP-9 (MMP-9 [1]; [3]): 32%(100), ip
COc1ccc(S(=O)(=O)N(Cc2cccnc2)c2c(C)cccc2C(=O)NO)cc1 [Example 61, N-Hydroxy-2-[(4-methoxy-benzenesulfonyl)-pyridin-3-ylmethyl-amino]-3-methyl-benzamide]				6.54	in-vivo MMP % inhibition vs. MMP-9 (MMP-9 [1]; 20 mg/kg, po (oral)): 46(20), po %; in-vivo MMP % inhibition vs. MMP-9 (MMP-9 [1]; 50 mg/kg, po (oral)): 59(50), po %
COc1ccc(S(=O)(=O)N(Cc2ccccc2)c2c(OCCCC(=O)NO)cccc2C(=O)NO)cc1 [Example 58, 2-[Benzyl-(4-methoxy-benzenesulfonyl)-amino]-N-hydroxy-3-(3-hydroxycarbamoyl-propoxy)-benzamide]	8.30	7.44	6.61	6.17	
COc1ccc(S(=O)(=O)N(Cc2cccnc2)c2c(C)cc(C=CC(=O)N3CCOCC3)cc2C(=O)NO)cc1 [Example 240]	8.46	8.80	7.07	6.26	
COc1ccc(S(=O)(=O)N(Cc2ccccc2)c2c(OCCCO)cccc2C(=O)NO)cc1 [Example 174, 2-[Benzyl-(4-methoxy-benzenesulfonyl)-amino]-N-hydroxy 3-(3-hydroxy-propoxy)-benzamide]	7.80	7.15	6.49		inhibition at 1 µM (TACE): 50%
COc1ccc(S(=O)(=O)N(C)c2c(CCC(=O)NO)cccc2C(=O)NO)cc1 [Example 350]	8.30	7.68	6.35	6.43	
COc1ccc(S(=O)(=O)N(Cc2ccccc2)c2c(OCc3ccc(C(=O)NO)cc3)cccc2C(=O)NO)cc1 [Example 57, 2-[Benzyl-(4-methoxy-benzenesulfonyl)-amino]-3-[4-(hydroxyaminocarbonyl)-benzyloxy]-N-hydroxy-benzamide]	7.92	7.48	< 6.30	6.00	
C#Cc1ccc(S(=O)(=O)N(Cc2cccnc2)c2c(C)cccc2C(=O)NO)cc1 [Example 413, 2-[(4-Ethynyl-benzenesulfonyl)-pyridin-3-ylmethyl-amino]-N-hydroxy-3-methyl-benzamide]	7.26	7.12	6.28		inhibition at 1 µM (TACE): 43%
COc1ccc(S(=O)(=O)N(Cc2ccc(Br)cc2)c2c(C)cc(C)cc2C(=O)NO)cc1 [Example 120, 2-[(4-Bromo-benzyl)-(4-methoxy-benzenesulfonyl)-amino]-N-hydroxy-3,5-dimethyl-benzamide]	7.74	7.41	6.62	6.51	
COc1ccc(S(=O)(=O)N(Cc2cccnc2)c2c(C)cc(C=CC(=O)N(C)C)cc2C(=O)NO)cc1 [Example 227, 5-(2-Dimethylcarbamoyl-vinyl)-N-hydroxy-2-[(4-methoxy-benzenesulfonyl)-pyridin-3-ylmethyl-amino]-3-methyl-benzamide]	8.51	8.39	6.71	6.35	
COc1ccc(S(=O)(=O)N(Cc2ccccc2)c2c(OCCO[Si](C)(C)C(C)(C)C)cccc2C(=O)NO)cc1 [Example 344, 2-[Benzyl-(4-methoxy-benzenesulfonyl)-amino]-3-[2-(tert-butyl-dimethyl-silanyloxy)-ethoxy]-N-hydroxy-benzamide]	7.16	6.49	5.93	6.28	
CCc1cc(C)c(N(Cc2cccnc2)S(=O)(=O)c2ccc(OC)cc2)c(C(=O)NO)c1 [Example 277, 5-Ethyl-N-hydroxy-2-[(4-methoxy-benzenesulfonyl)-pyridin-3-ylmethyl-amino]-3-methyl-benzamide]	8.40	8.40	7.25	7.47	
COc1ccc(S(=O)(=O)N(Cc2cccnc2)c2c(C)cc(-c3cc(-c4ccc(C)o4)no3)cc2C(=O)NO)cc1 [Example 301, N-Hydroxy-2-[(4-methoxy-benzenesulfonyl)-pyridin-3-ylmethyl-amino]-3-methyl-5-[3-(5-methyl-furan-2-yl)-isoxazol-5-yl]-benzamide]	8.16	8.06	6.68	5.83	
Cc1cc(C)c(N(Cc2ccccc2)S(=O)(=O)c2ccc(OCc3ccccc3)cc2)c(C(=O)NO)c1 [Example 74, 2-[Benzyl-(4-benzyloxy-benzenesulfonyl)-amino]-N-hydroxy-3,5-dimethyl-benzamide]	6.26	6.02	< 6.00		pIC50 (TACE): 6.37
COc1ccc(S(=O)(=O)N(Cc2cccc(OC)c2)c2c(C)cc(C)cc2C(=O)NO)cc1 [Example 115, N-Hydroxy-2-[(4-methoxy-benzenesulfonyl)-(3-methoxy-benzyl)-amino]-3,5-dimethyl-benzamide]	7.96	7.70	< 6.00	6.76	
